Measured values taken from US20150087627A1, “COMBINATION OF KINASE INHIBITORS AND USES THEREOF” (Intellikine LLC, priority 2011, published 2015).
Read-outs that look alike come from different tables or passages of the source.

Assays:
Type in all cases: biochemical
[1] = target: T1, PI3K α (p110α/p85α) (Homo sapiens, UniProt P42336); assay: PI 3-Kinase (human) HTRF assay, PI3K α; conditions: read-out: PI3K α IC50
T1 construct: purchased Upstate / Millipore Corporation

[2] = target: T2, PI3K β (p110β/p85α) (Homo sapiens, UniProt P42338); assay: PI 3-Kinase (human) HTRF assay, PI3K β; conditions: read-out: PI3K β IC50
T2 construct: purchased Upstate / Millipore Corporation
T2 sequence (P42338 whole entry): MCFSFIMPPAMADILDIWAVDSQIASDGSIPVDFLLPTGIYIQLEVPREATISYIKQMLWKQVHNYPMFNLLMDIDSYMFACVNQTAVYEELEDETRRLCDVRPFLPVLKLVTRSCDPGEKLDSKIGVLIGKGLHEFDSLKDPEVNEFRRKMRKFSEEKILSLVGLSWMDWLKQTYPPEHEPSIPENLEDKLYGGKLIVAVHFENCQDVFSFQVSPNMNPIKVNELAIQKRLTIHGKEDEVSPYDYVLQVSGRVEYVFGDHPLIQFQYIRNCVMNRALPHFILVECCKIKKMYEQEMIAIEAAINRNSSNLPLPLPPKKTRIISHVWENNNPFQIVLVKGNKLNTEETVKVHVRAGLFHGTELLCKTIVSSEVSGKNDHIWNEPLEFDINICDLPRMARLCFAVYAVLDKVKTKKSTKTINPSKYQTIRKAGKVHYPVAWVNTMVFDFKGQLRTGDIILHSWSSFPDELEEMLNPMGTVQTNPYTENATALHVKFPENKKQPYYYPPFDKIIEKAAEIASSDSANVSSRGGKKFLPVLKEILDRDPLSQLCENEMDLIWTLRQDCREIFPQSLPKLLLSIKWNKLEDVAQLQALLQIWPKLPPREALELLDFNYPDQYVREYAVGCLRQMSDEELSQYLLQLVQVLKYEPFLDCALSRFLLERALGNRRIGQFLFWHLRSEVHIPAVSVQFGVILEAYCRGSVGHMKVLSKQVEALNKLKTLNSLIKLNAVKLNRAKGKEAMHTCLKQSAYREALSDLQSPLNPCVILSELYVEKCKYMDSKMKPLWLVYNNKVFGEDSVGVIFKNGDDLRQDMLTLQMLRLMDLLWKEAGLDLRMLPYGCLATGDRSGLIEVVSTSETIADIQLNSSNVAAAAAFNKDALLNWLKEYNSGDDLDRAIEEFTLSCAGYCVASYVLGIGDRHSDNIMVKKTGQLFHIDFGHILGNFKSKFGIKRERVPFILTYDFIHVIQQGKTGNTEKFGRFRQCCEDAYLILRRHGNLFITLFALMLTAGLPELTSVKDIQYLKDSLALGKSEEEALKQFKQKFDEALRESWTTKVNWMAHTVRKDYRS
T2 sequence (P27986 whole entry partner): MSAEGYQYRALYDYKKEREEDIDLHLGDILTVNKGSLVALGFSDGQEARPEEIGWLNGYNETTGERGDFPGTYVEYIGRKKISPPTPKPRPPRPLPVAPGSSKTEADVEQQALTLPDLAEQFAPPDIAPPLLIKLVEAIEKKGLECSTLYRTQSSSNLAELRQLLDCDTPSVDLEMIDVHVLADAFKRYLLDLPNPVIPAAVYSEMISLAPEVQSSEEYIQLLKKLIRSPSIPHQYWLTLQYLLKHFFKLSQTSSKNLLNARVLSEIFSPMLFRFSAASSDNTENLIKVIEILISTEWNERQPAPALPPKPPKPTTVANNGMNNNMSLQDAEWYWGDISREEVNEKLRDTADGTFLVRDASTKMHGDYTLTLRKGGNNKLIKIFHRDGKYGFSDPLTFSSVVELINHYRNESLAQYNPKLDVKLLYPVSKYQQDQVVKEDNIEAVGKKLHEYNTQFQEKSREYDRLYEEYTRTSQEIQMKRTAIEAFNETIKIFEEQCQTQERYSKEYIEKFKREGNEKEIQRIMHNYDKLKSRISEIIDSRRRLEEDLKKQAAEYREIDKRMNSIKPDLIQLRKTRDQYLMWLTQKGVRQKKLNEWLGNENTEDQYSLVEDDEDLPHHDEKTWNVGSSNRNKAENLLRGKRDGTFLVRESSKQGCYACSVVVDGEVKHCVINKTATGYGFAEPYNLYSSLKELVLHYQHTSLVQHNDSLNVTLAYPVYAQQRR

[3] = target: T3, PI3K γ (p110γ) (Homo sapiens, UniProt P48736); assay: PI 3-Kinase (human) HTRF assay, PI3K γ; conditions: read-out: PI3K γ IC50
T3 construct: purchased Upstate / Millipore Corporation
T3 sequence (P48736 whole entry): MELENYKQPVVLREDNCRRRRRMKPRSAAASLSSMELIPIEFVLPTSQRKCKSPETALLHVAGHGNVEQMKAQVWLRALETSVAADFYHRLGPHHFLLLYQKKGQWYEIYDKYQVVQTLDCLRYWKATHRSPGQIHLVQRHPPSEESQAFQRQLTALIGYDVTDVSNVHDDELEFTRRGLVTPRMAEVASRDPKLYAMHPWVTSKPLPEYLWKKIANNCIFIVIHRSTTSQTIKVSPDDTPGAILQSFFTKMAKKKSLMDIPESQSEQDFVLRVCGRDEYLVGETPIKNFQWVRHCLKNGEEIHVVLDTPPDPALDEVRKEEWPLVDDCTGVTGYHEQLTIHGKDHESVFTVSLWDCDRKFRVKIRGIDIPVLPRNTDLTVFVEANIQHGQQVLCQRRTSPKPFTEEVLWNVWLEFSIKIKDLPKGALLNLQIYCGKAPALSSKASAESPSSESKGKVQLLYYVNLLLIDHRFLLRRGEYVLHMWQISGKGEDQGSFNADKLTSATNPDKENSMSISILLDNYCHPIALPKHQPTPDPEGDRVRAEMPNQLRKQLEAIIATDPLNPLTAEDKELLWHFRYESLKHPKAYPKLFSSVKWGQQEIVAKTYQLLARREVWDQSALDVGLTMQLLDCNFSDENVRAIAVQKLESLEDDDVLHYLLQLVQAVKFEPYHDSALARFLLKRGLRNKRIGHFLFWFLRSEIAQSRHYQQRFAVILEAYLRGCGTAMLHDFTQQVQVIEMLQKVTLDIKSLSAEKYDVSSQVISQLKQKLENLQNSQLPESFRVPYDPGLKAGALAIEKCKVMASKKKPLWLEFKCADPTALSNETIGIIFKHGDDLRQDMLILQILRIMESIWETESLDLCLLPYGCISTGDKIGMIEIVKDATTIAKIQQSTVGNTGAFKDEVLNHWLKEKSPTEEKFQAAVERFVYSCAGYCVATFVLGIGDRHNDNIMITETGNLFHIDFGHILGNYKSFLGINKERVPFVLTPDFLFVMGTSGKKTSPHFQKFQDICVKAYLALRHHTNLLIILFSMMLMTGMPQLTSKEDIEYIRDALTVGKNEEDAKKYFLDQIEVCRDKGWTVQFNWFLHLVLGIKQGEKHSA

[4] = target: T4, PI3K δ (Homo sapiens, UniProt O00329); assay: PI 3-Kinase (human) HTRF assay, PI3K δ; conditions: read-out: PI3K δ IC50
T4 construct: purchased Upstate / Millipore Corporation
T4 sequence (O00329 whole entry): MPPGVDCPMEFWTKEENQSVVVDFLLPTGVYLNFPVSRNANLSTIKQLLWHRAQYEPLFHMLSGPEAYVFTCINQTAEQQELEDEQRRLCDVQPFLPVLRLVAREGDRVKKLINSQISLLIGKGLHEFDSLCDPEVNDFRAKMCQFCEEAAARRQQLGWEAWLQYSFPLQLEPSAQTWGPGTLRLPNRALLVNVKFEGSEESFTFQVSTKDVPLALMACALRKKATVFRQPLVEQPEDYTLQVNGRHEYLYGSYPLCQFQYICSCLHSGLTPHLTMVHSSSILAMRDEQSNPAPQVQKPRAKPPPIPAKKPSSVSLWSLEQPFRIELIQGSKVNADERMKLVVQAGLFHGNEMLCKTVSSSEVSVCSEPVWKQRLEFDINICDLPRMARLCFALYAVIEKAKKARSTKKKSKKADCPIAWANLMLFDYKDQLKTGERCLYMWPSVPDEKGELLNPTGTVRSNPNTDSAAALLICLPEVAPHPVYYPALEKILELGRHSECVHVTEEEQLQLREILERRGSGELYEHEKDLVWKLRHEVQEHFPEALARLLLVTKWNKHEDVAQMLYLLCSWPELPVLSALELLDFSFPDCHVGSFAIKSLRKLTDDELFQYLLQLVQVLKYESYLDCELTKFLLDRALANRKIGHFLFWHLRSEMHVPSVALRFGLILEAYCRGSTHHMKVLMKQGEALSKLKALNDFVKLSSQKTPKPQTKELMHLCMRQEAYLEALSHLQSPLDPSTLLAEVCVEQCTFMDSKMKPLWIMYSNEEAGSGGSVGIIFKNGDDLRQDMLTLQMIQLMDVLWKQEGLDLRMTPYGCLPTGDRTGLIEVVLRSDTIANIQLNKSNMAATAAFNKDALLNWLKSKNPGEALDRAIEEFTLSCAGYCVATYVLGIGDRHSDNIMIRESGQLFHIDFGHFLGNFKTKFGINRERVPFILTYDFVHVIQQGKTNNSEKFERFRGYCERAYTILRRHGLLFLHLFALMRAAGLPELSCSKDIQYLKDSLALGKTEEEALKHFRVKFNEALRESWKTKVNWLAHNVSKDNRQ
T4 sequence (P27986 whole entry partner): as the sequence (P27986 whole entry partner) above

T1 sequence (P42336 whole entry): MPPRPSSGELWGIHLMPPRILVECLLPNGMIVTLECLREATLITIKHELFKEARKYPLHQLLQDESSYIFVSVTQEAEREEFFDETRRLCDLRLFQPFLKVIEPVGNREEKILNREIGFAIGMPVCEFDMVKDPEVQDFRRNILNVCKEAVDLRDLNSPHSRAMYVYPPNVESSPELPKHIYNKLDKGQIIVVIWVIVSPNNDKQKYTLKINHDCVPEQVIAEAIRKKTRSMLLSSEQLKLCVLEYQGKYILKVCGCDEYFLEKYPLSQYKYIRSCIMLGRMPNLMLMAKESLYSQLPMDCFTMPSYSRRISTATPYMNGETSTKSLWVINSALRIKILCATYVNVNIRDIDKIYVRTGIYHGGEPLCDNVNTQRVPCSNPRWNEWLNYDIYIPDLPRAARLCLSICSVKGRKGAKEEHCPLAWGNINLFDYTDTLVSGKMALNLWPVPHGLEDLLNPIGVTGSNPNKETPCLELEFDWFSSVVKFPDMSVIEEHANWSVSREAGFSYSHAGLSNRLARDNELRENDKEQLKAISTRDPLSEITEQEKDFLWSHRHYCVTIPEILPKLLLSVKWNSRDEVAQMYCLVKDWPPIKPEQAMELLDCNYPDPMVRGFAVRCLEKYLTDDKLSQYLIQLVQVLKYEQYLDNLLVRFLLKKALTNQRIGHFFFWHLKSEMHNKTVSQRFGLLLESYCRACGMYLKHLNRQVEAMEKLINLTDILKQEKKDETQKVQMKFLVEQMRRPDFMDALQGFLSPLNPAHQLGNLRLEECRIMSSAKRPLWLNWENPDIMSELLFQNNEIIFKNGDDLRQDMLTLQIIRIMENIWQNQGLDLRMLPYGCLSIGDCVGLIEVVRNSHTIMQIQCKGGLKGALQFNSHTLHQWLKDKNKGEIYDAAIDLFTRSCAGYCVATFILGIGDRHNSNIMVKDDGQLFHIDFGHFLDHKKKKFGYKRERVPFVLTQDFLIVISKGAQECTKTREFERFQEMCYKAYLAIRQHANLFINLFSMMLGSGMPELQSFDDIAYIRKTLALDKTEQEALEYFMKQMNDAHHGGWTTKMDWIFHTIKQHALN
T1 sequence (P27986 whole entry partner): as the sequence (P27986 whole entry partner) above

| SMILES | IC50 [1] | IC50 [2] | IC50 [3] | IC50 [4] | IC50 ([1]; Table 4 (PI3K α inhibitors)) | IC50 ([2]; Table 4 (PI3K α inhibitors)) | IC50 ([3]; Table 4 (PI3K α inhibitors)) | IC50 ([4]; Table 4 (PI3K α inhibitors)) |
| --- | --- | --- | --- | --- | --- | --- | --- | --- |
| O=C(c1cnc2ccc(-c3ccc4oc(Nc5ccccc5)nc4c3)cn12)N1CCOCC1 [Compound 407] | > 10 µM | < 10 µM | > 10 µM | > 10 µM |  |  |  |  |
| CC(=O)N1CCC(Nc2cnc3ccc(-c4ccc5oc(N)nc5c4)cc3n2)CC1 [Compound 82] | < 0.1 µM | < 10 µM | < 0.1 µM | < 0.1 µM |  |  |  |  |
| Nc1nc2cc(-c3ccc4ncc(C(=O)N5CCC(F)(F)CC5)n4c3)ccc2o1 [Compound 501] | < 1 µM | > 10 µM | < 10 µM | > 10 µM |  |  |  |  |
| CN1CCN(c2cnc3ccc(-c4ccc5sc(N)nc5c4)cc3n2)CC1 [Compound 127] | < 1 µM | < 0.1 µM | < 10 µM | > 10 µM |  |  |  |  |
| Nc1nc2cc(-c3ccc4ncc(N5CCN(CCO)CC5)nc4c3)ccc2o1 [Compound 100] | < 0.1 µM | < 0.1 µM | < 1 µM | < 10 µM |  |  |  |  |
| CN1CCN(n2cnc3ccc(-c4ccc5oc(N)nc5c4)cc3c2=O)CC1 [Compound 446] | < 1 µM | > 10 µM | > 10 µM | > 10 µM |  |  |  |  |
| Nc1nc2cc(-c3cc(F)c4oc(N)nc4c3)ccc2o1 [Compound 432] | < 10 µM | < 1 µM | < 0.1 µM | > 10 µM |  |  |  |  |
| CC(C)N1CCC(n2cnc3ccc(-c4cnc(Cl)c(NS(C)(=O)=O)c4)cc3c2=O)CC1 [Compound 523] | < 0.1 µM | < 1 µM | < 0.1 µM | < 0.1 µM |  |  |  |  |
| COC1CN(C(=O)c2cnc3ccc(-c4ccc5oc(N)nc5c4)cn23)C1 [Compound 467] | < 0.1 µM | < 10 µM | < 0.1 µM | < 10 µM |  |  |  |  |
| Nc1nc2cc(-c3ccc4nc(N5CCOCC5)cnc4n3)ccc2o1 [Compound 558] |  |  |  |  | > 10 µM | > 10 µM | > 10 µM | > 10 µM |
| Nc1nc2cc(-c3ccc4ncc(C(=O)N5CCOCC5)nc4c3)ccc2o1 [Compound 158] | < 10 µM | > 10 µM | > 10 µM | > 10 µM |  |  |  |  |
| CN(C)CCn1cnc2ccc(-c3ccc4oc(N)nc4c3)cc2c1=O [Compound 292] | < 10 µM | > 10 µM | > 10 µM | > 10 µM |  |  |  |  |
| CC1CN(C(=O)c2cnc3ccc(-c4ccc5oc(N)nc5c4)cn23)CC(C)N1 (centres unmarked) [Compound 142] | < 10 µM | > 10 µM | > 10 µM | > 10 µM |  |  |  |  |
| CN(C)C1CCN(c2cnc3ccc(-c4ccc5oc(N)nc5c4)cc3n2)CC1 [Compound 172] | < 0.1 µM | < 0.1 µM | < 1 µM | < 0.1 µM |  |  |  |  |
| C[C@H](N)C(=O)N1CCN(c2cnc3ccc(-c4ccc5oc(N)nc5c4)nc3n2)CC1 [Compound 581] |  |  |  |  | < 0.1 µM | < 0.1 µM | < 0.1 µM | < 0.1 µM |
| COc1nc(-c2ccc3oc(N)nc3c2)cnc1N [Compound 238] | < 1 µM | < 1 µM | < 1 µM | < 10 µM |  |  |  |  |
| COC(=O)N1CCN(c2cnc3ccc(-c4ccc5oc(N)nc5c4)cc3n2)CC1 [Compound 193] | < 0.1 µM | < 1 µM | < 0.1 µM | < 10 µM |  |  |  |  |
| Nc1nc2cc(-c3ccc4ncn(C5CCC5)c(=O)c4c3)ccc2o1 [Compound 205] | < 0.1 µM | > 10 µM | > 10 µM | > 10 µM |  |  |  |  |
| Nc1nc2cc(-c3ccc4ncc(N5CCOCC5)n4c3)ccc2o1 [Compound 53] | < 10 µM | > 10 µM | > 10 µM | > 10 µM |  |  |  |  |
| Nc1nc2cc(-c3c[nH]c4nccc(-c5ccncc5)c34)ccc2o1 [Compound 25] | < 10 µM | > 10 µM | < 10 µM | > 10 µM |  |  |  |  |
| Nc1nc2cc(-c3ccc4ncc(C(=O)N5CCOCC5)n4c3)cc(F)c2o1 [Compound 360] | < 0.1 µM | < 1 µM | < 0.1 µM | < 10 µM |  |  |  |  |
| Nc1nc2cc(-c3ccc4ncnc(NC5CCOCC5)c4c3)ccc2o1 [Compound 24] | < 0.1 µM | < 1 µM | < 0.1 µM | < 0.1 µM |  |  |  |  |
| CN(CCN1CCOCC1)c1cnc2ccc(-c3ccc4oc(N)nc4c3)cc2n1 [Compound 166] | < 1 µM | < 10 µM | < 10 µM | > 10 µM |  |  |  |  |
| Nc1nc2cc(-c3ccc4ncc(-c5ccc(N6CCOCC6)nc5)nc4c3)ccc2o1 [Compound 167] | < 10 µM | > 10 µM | > 10 µM | > 10 µM |  |  |  |  |
| CN1CCC(n2cnc3ccc(-c4cnc(Cl)c(NS(C)(=O)=O)c4)cc3c2=O)CC1 [Compound 526] | < 0.1 µM | < 10 µM | > 10 µM | < 1 µM |  |  |  |  |
| CC(=O)Nc1nc2ccc(-c3ccc4nc(N)oc4c3)cc2s1 [Compound 242] | < 0.1 µM | < 0.1 µM | < 0.1 µM | > 10 µM |  |  |  |  |
| COc1ncc(-c2ccc3ncc(C(=O)N4CCOCC4)n3c2)c2cn[nH]c12 [Compound 517] | < 1 µM | > 10 µM | < 10 µM | < 10 µM |  |  |  |  |
| C[C@@H]1CN(C2CN(c3cnc4ccc(-c5ccc6oc(N)nc6c5)cc4n3)C2)CCN1 [Compound 355] | < 0.1 µM | < 10 µM | < 10 µM | < 1 µM |  |  |  |  |

Further lines, results first:

| IC50 [1] | IC50 [2] | IC50 [3] | IC50 [4] | IC50 ([1]; Table 4 (PI3K α inhibitors)) | IC50 ([2]; Table 4 (PI3K α inhibitors)) | IC50 ([3]; Table 4 (PI3K α inhibitors)) | IC50 ([4]; Table 4 (PI3K α inhibitors)) | SMILES |
| --- | --- | --- | --- | --- | --- | --- | --- | --- |
| < 0.1 µM | < 10 µM | < 1 µM | > 10 µM |  |  |  |  | Nc1nc2cc(-c3ccc4ncn(CCO)c(=O)c4c3)ccc2o1 [Compound 184] |
| < 0.1 µM | < 10 µM | < 0.1 µM | > 10 µM |  |  |  |  | Nc1nc2cc(-c3ccc4ncc(C(=O)N5CC(F)C5)n4c3)ccc2o1 [Compound 468] |
| > 10 µM | > 10 µM | > 10 µM | > 10 µM |  |  |  |  | Cc1nc2ccc(-c3ccc4oc(N)nc4c3)cn2c1C(=O)N1CCOCC1 [Compound 92] |
| < 1 µM | > 10 µM | > 10 µM | > 10 µM |  |  |  |  | CN1CCN(CCCn2cnc3ccc(-c4ccc5oc(N)nc5c4)cc3c2=O)CC1 [Compound 291] |
| < 10 µM | > 10 µM | > 10 µM | > 10 µM |  |  |  |  | Nc1nc2cc(-c3ccc4ncn(C5CCOCC5)c4c3)ccc2o1 [Compound 48] |
| < 0.1 µM | < 1 µM | < 1 µM | < 10 µM |  |  |  |  | CS(=O)(=O)CCN1CCN(c2cnc3ccc(-c4ccc5oc(N)nc5c4)cc3n2)CC1 [Compound 90] |
| < 1 µM | < 1 µM | < 10 µM | < 1 µM |  |  |  |  | Nc1nc2cc(-c3ccc4ncc(C(=O)NCCCN5CCOCC5)n4c3)ccc2o1 [Compound 288] |
| < 10 µM | > 10 µM | > 10 µM | > 10 µM |  |  |  |  | Nc1nc2nc(-c3ccc4ncc(C(=O)N5CCOCC5)n4c3)ccc2o1 [Compound 412] |
| < 10 µM | > 10 µM | > 10 µM | > 10 µM |  |  |  |  | CN1CCN(C(=O)c2cnc3cnc(-c4ccc5oc(N)nc5c4)cn23)CC1 [Compound 123] |
| < 0.1 µM | < 0.1 µM | < 0.1 µM | < 1 µM |  |  |  |  | CC(C)N1CCN(c2cnc3ccc(-c4ccc5oc(N)nc5c4)cc3n2)CC1 [Compound 84] |
| < 10 µM | > 10 µM | > 10 µM | > 10 µM |  |  |  |  | CCN(CC)CCn1cnc2ccc(-c3ccc4oc(N)nc4c3)cc2c1=O [Compound 224] |
| < 0.1 µM | < 10 µM | < 1 µM | < 1 µM |  |  |  |  | Nc1nc2cc(-c3ccc4ncc(N5CCC(O)CC5)nc4c3)ccc2o1 [Compound 99] |
| < 0.1 µM | < 1 µM | < 1 µM | < 10 µM |  |  |  |  | Nc1nc2cc(-c3ccc4ncc(N5CC(C(=O)NC6CC6)C5)nc4c3)ccc2o1 [Compound 215] |
| > 10 µM | > 10 µM | > 10 µM | > 10 µM |  |  |  |  | CC(C)N1CCN(c2cnc3ccc(-c4ccc5oc(N)nc5c4)cc3n2)C(=O)C1 [Compound 392] |
| < 10 µM | > 10 µM | > 10 µM | > 10 µM |  |  |  |  | Nc1nc2cc(-c3ccc4ncc(C(=O)N5CCOCC5)cc4c3)ccc2o1 [Compound 97] |
| < 10 µM | < 10 µM | < 10 µM | < 10 µM |  |  |  |  | Cc1cc(-c2ccc3ncc(N4CC(N5CCOCC5)C4)nc3c2)cc2nc(N)oc12 [Compound 365] |
| < 1 µM | > 10 µM | < 10 µM | > 10 µM |  |  |  |  | C[C@@H]1CN(c2cnc3ccc(-c4ccc5oc(N)nc5c4)cc3n2)C[C@H](C)O1 [Compound 132] |
|  |  |  |  | < 1 µM | > 10 µM | > 10 µM | > 10 µM | Nc1nc2cc(-c3ccc4ncc(N5CC(N6CCNCC6)C5)nc4n3)ccc2o1 [Compound 585] |
| < 0.1 µM | < 10 µM | < 10 µM | < 1 µM |  |  |  |  | C[C@@H]1CN(C2CN(C(=O)c3cnc4ccc(-c5ccc6oc(N)nc6c5)cn34)C2)CCN1C [Compound 508] |
| < 1 µM | > 10 µM | < 10 µM | > 10 µM |  |  |  |  | Nc1nc2cc(-c3ccc4ncc(C(=O)N5CCC6(C5)OCCO6)n4c3)ccc2o1 [Compound 499] |
| < 1 µM | < 10 µM | < 10 µM | < 10 µM |  |  |  |  | Nc1nc2cc(-c3ccn4ncc(C(=O)N5CCC(N6CCOCC6)CC5)c4c3)ccc2o1 [Compound 398] |
| < 0.1 µM | < 1 µM | < 1 µM | < 0.1 µM |  |  |  |  | CCN(CC)CCCNc1cnc2ccc(-c3ccc4oc(N)nc4c3)cc2n1 [Compound 220] |
